Source: PMC11088877, “AMP-activated protein kinase can be allosterically activated by ADP but AMP remains the key activating ligand” (Biochemical Journal, 2024)
Where two headings read alike, the source gives them in different places.

Tests used:
[1] = target: T1, phosphorylated human α2β2γ1 complex (WT) (Homo sapiens, UniProt P54619+P54646); assay: AMPK inactivation and Thr172 dephosphorylation by PP2Cα (PPM1A), WT; format: biochemical; conditions: 300 µM nucleotide, absence of ATP
T1 construct: made in house; host or cells: Escherichia coli
T1 sequence (P54619 whole entry): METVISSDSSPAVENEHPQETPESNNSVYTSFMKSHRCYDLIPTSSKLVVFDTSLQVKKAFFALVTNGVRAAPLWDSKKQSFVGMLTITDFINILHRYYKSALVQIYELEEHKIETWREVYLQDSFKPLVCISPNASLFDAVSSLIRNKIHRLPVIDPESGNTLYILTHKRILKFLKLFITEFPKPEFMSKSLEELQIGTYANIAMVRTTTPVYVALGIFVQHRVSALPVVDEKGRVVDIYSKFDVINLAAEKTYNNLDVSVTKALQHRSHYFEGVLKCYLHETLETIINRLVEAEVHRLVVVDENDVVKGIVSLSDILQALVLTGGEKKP
T1 sequence (P54646 whole entry): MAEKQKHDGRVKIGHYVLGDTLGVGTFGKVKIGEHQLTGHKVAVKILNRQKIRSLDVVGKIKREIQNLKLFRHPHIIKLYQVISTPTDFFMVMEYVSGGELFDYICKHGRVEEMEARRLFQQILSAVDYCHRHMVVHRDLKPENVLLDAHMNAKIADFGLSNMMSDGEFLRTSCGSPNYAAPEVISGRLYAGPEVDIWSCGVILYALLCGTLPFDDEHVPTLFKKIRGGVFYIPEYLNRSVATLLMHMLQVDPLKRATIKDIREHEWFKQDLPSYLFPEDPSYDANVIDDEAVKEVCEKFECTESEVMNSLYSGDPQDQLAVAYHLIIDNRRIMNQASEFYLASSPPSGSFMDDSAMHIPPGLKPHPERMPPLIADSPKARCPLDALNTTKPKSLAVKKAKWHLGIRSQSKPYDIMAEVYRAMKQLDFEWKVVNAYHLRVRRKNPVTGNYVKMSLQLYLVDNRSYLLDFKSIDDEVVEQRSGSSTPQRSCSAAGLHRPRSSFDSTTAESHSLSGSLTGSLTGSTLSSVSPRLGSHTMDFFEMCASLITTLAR
T1 sequence (O43741 whole entry partner): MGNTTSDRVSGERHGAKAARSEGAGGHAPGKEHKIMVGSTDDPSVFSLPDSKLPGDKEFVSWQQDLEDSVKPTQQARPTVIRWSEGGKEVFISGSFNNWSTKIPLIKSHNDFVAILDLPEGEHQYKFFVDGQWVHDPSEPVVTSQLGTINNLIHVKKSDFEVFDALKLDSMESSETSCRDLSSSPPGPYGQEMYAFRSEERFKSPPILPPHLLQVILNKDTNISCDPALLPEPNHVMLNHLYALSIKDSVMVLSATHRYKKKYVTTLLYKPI
Method: (§1) The relative roles of the three CBS sites in the other two mechanisms of activation of AMPK by AMP or ADP, i.e. promotion of Thr172 phosphorylation by LKB1, and protection against Thr172 dephosphorylation by protein phosphatases, have not been examined previously. As expected, incubation of the α2β2γ1 AMPK complex with a fixed, limiting amount of purified LKB1:STRADα:MO25α complex in the presence of 200 µM Mg.ATP^2− caused a large degree of activation (Figure 5A) and phosphorylation (Figure 5B) of AMPK (unphosphorylated α2β2γ1 complex), which were stimulated more than 2-fold by 300 µM AMP and 1.6-fold by 300 µM ADP.
(§2) Figure 6. Effects of AMP or ADP on AMPK inactivation and Thr172 dephosphorylation by PP2Cα (PPM1A). Human α2β2γ1 complexes (WT, or with L129D/V130D, V276G/L277G or I312G mutations affecting CBS1, CBS3 or CBS4 respectively), all phosphorylated on Thr172, were incubated with a fixed concentration of PP2Cα (PPM1A) in the presence or absence of AMP or ADP (both 300 µM) as described in the Materials and methods section. After the incubation, aliquots were withdrawn for (A) AMPK assay or (B) Western blots. […] For (B), due to a limit on the number of lanes that could be run on one gel, single replicates from the triplicate assays were analysed. […]

[2] = test system: bacterially expressed AMPK; conditions: 5 mM Mg2+, 200 µM ATP, cited from earlier work
[3] = target: T2, human α2β2γ1 complex, CBS1 mutant (L129D/V130D) (Homo sapiens, UniProt P54619+P54646, L129D/V130D); assay: AMPK inactivation and Thr172 dephosphorylation by PPM1A, CBS1 mutant; format: biochemical; conditions: 300 µM nucleotide, absence of ATP
T2 construct: made in house; host or cells: Escherichia coli
T2 sequence (P54619 whole entry L129D/V130D): as the sequence (P54619 whole entry) above, with L129D, V130D counted along it
T2 sequence (P54646 whole entry): as the sequence (P54646 whole entry) above
T2 sequence (O43741 whole entry partner): as the sequence (O43741 whole entry partner) above
Method: as §1, §2

[4] = target: T3, human α2β2γ1 complex, CBS3 mutant (V276G/L277G) (Homo sapiens, UniProt P54619+P54646, L277G/V276G); assay: AMPK activation and Thr172 phosphorylation by the LKB1 complex, CBS3 mutant; format: biochemical; conditions: 300 µM nucleotide, 200 µM ATP
T3 construct: made in house; host or cells: Escherichia coli
T3 sequence (P54619 whole entry V276G/L277G): as the sequence (P54619 whole entry) above, with V276G, L277G counted along it
T3 sequence (P54646 whole entry): as the sequence (P54646 whole entry) above
T3 sequence (O43741 whole entry partner): as the sequence (O43741 whole entry partner) above
Method: as §1
Figure 5. Effects of AMP or ADP on AMPK activation and Thr172 phosphorylation by the LKB1:STRADα:MO25α complex. Unphosphorylated human α2β2γ1 complexes (WT, or with L129D/V130D, V276G/L277G or I312G mutations affecting CBS1, CBS3 or CBS4 respectively) were incubated with ATP and a fixed concentration of the LKB1:STRADα:MO25α complex in the presence or absence of AMP or ADP (both 300 µM), as described in the Materials and methods section. After the incubation aliquots were withdrawn for (A) AMPK assay or (B) Western blots. […] For (B), due to a limit on the number of lanes that could be run on one gel, single replicates from the triplicate assays were analysed. […]

Nc1ncnc2c1ncn2[C@@H]1O[C@H](COP(=O)(O)OP(=O)(O)O)[C@@H](O)[C@H]1O [ADP]
inactivation and dephosphorylation of AMPK by PPM1A in the presence of nucleotide [1]: greatly reduced
effect on kinase activity ([2]; 200 µM ADP): a small inhibition
allosteric activation ([2]; any ADP concentration up to 200 µM): no allosteric activation
protective effect of nucleotide against PPM1A in the mutant [3]: unaffected
effect of nucleotide on activation/phosphorylation by LKB1 in the mutant [4]: abolished

Nc1ncnc2c1ncn2[C@@H]1O[C@H](COP(=O)(O)O)[C@@H](O)[C@H]1O [AMP]
inactivation and dephosphorylation of AMPK by PPM1A in the presence of nucleotide [1]: greatly reduced
allosteric activation ([2]; 200 µM AMP): ~2 fold
protective effect of nucleotide against PPM1A in the mutant [3]: unaffected
effect of nucleotide on activation/phosphorylation by LKB1 in the mutant [4]: abolished
